The results in this text go back to patent US7094803B2, “Biologically active raspailamide compounds” (Harbor Branch Oceanographic Institution, Inc., priority 2003, dated 2006).

SMILES strings stand for the structures.

The assay has as its system A549 human lung adenocarcinoma. Description: Antiproliferative MTT assay, A549 human lung adenocarcinoma cell line. The assay is classed as cell-based. As to conditions: A549 adherent cells, 72-h exposure, cytotoxicity. The method, then: Raspailamide A (I) and B (II) were analyzed as to their effect on the proliferation of A549 human lung adenocarcinoma and P388 murine leukemia cell lines. P388 cells were obtained from Dr. R. Camalier, National Cancer Institute, Bethesda, Md., and A549 cells were obtained from American Type Culture Collection, Rockville, Md.
All cell lines are maintained in Roswell Park Memorial Institute (RPMI) medium 1640 supplemented with 100 U/mL penicillin 100 μg/ml streptomycin, 60 μg/ml L-glutamine, 18 mM HEPES, 0.05 mg/mL gentamycin and 10% fetal bovine serum. Cell lines are cultured in plastic tissue culture flasks and kept in an incubator at 37° C. in humidified air containing 5% CO2. […]
A volume of 75 μl of warm growth media containing 5 mg/ml MTT is added to each well, cultures returned to the incubator, and left undisturbed for 3 hours. To spectrophotometrically quantitate formation of reduced formazan, plates are centrifuged (900×g, 5 minutes), culture fluids removed by aspiration, and 200 μl of acidified isopropanol (2 ml concentrated HCl/iter isopropanol) added per well. The absorbance of the resulting solutions is measured at 570 nm with a plate reader (Spectra II (Tecan Laboratories). […]
The two standard drug controls (indicated above) are included in each assay to monitor the drug sensitivity of each of the cell lines and IC50 values are determined for each drug-cell combination.

For the compound `C=C/C=C/C(C)=C/C(C)C1CC(OC)CC(CC2OC(CC(C)/C=C/C(C)=C/CC(CC(O)CNC(=O)C(=C)OC)OC(N)=O)C(C)(O)CC2C)O1` (centres unmarked) [Raspailamide (II), Raspailamide B], the IC50 worked out at 0.018 ng/mL.
The result for `C=C(OC)C(=O)NCC(O)CC(C/C=C(C)/C=C/C(C)CC1OC(CC2CC(OC)CC(C(C)/C=C(C)/C=C/C=C/C)O2)C(C)CC1(C)O)OC(N)=O` (centres unmarked) [Raspailamide A (I), Raspailamide A] reads 0.046 ng/mL.
